Experimental data: a melting point compilation (Tetko et al.; mined from patent text by program, amines drawn as free bases though some values may be those of a salt)

melting point	SMILES
153 to 155 °C	Cn1c(CCN2CCN(c3ccccc3)CC2)nc2c3ccccc3ccc21
102 to 104 °C	CC(=O)Nc1cccc(C2CCNCC2)c1
179 to 180 °C	COc1ccc(-n2nc(Sc3ccccc3)c(C)c(C#N)c2=O)cc1
191 to 193 °C	CC(Br)C(=O)c1ccc2oc(=O)[nH]c2c1 (stereo unspecified)
213 °C	C#CCOC(=O)N1c2ccccc2C(=O)Nc2cccnc21
113 °C	CCOc1cc(C=[N+]([O-])C2CCC2)ccc1OC
150 to 151 °C	CCOC(=O)c1c(Cn2cncn2)nc2cc(OC)c(OC)cc2c1-c1ccc(OC)cc1
158 to 160 °C	CC(C)=CCOc1ccc2c(=O)c(C)c(-c3ccccc3)oc2c1C(=O)C=Cc1cccs1
96 to 98 °C	CCOC(=O)Cc1ccc(Cn2c(-c3ccc(OC4CCCC4)cc3)c(C)c3cc(OCc4ccccc4)ccc32)cc1
157 to 158 °C	Cc1cc(=O)[nH]c2ccc(C(O)(C(F)(F)F)C(F)(F)F)cc12
212 to 213 °C	Nc1cc(C(=O)O)cc(OCc2ccccn2)c1C(=O)c1ccccc1
147 to 149 °C	COc1cc(-c2csc(C#N)n2)cc(Cl)c1OC
42 to 43 °C	CCOC(=O)c1ccc(C(F)(F)F)cc1N
140 to 141 °C	Cn1ncc(N2CCCC2)c(-c2ccccc2C=O)c1=O
108 to 109 °C	OCc1ccc(-c2nn(Cc3ccccc3)c3ccccc23)o1
115 to 116 °C	COC(=O)c1cc(C(=O)NCCN(C)C)c2cc(Cc3ccc(F)cc3)cnc2c1O
98 °C	CCOC(=O)c1ccc(/C=C(\C)C=O)s1
101 to 107 °C	CC(C)CC(NC(=O)C(Cc1c[nH]cn1)NC(=O)C(CC(=O)NCCc1ccccc1)Cc1cccc2ccccc12)C(O)CO (mixture of isomers)
71 to 74 °C	COC(=O)c1ccc(Br)c(C=O)c1
165 to 167 °C	CCOC(=O)c1cc(C#N)c(C=O)nc1Nc1ccccc1
135 to 138 °C	O=C1OC(c2ccccc2)N=C1CCCNC(=O)c1ccccc1 (stereo unspecified)
260 to 263 °C	Cn1cnc(S(=O)(=O)N2CCn3c(c(C(N)=O)c(Cl)c3-c3ccccc3)C2)c1
144 to 146 °C	CN1C(=O)CCC2(C)c3ccc(CSc4ccccc4)cc3CCC12 (stereo unspecified)
102 to 104 °C	CCOC(=O)c1c2ccc(Cl)cc2c(-c2ccccc2)n1CCCN(CC)C(C)=O
150 to 152 °C	O=C(c1cccs1)c1cc(Cc2ccccc2)c(O)c2ccccc12
192 to 194 °C	CC(C)COc1ccc(-n2cc(C(=O)O)cn2)cc1C#N

melting point	SMILES
145 to 147 °C	O=C(O)c1ccc(CCC(=O)c2ccccc2)cc1
151 to 152 °C	O=C(CCc1ccccc1)N[C@H](Cc1ccc(C(F)(F)F)cc1)[C@@H](O)c1cccc(F)c1 (racemic)
138 to 140 °C	O=C(O)COCCCCC1CCCN1c1cnc(-c2ccccc2)c(-c2ccccc2)n1 (stereo unspecified)
145 to 146 °C	C=CCNC(=O)COc1ccc(C2=NNC(=O)CC2)cc1Cl
96 °C	CCOC(=O)C1=CC(=O)C2(C(=O)c3ccc(OC)cc3)OC2O1 (stereo unspecified)
268 to 270 °C	CC1(c2ccc([N+](=O)[O-])cc2)Cc2cc(O)c(Cl)c(Cl)c2C1=O (stereo unspecified)
183 to 185 °C	N#Cc1ccc(NC(=O)Nc2cccc(C#N)c2)cc1
105 °C	Cc1ccnc(-c2ccc(C)c(-c3ccccc3)n2)n1
148 to 149 °C	O=C1Cc2cc(OCc3ccc4ccccc4n3)ccc2N1c1ccccc1
95 to 97 °C	N#Cc1ccc(NC(=O)NCCCCl)cc1
56 to 57 °C	CC(=O)COc1ccc(Oc2ccc(F)cc2)cc1
169 to 171 °C	COc1cc(-c2oc3cc(I)ccc3c(=O)c2O)cc(OC)c1OCc1ccccc1
226 to 228 °C	COC(=O)C1=C(COCCn2c(C)nc(C)c2C)Nc2c(c(=O)n(C)c(=O)n2C)C1c1ccccc1Cl (stereo unspecified)
204 to 206 °C	COC(=O)c1ccc(-c2ccccc2)cc1S(=O)(=O)NC(=O)Nc1nc(OC)cc(OC)n1
177 to 178 °C	CC(C)c1ccccc1Sc1c(O)cc(-c2cccc(Cl)c2)oc1=O
205 °C	COCCNC(=O)c1ccc(/C=C/C(=O)O)cc1
80 to 82 °C	Nc1nc2c(NCc3ccccc3)ncnc2n1C1OC(CO)C(O)C1O (stereo unspecified)
78 to 79 °C	CCOC(=O)c1csc(Cc2ccccc2)n1
218 to 220 °C	O=C(c1ccccc1)c1c[nH]c2cnccc12
206 °C	CC(C(N)=O)C(=O)Nc1ccc(OCc2cccc(F)c2)cc1 (stereo unspecified)
153 to 157 °C	CC(=O)C(=CS(=O)(=O)NC(C)C)c1cccc([N+](=O)[O-])c1
135 to 150 °C	Nc1cccc(-c2ccc(OCC3CCN3)c3ccccc23)n1 (stereo unspecified)
165 to 167 °C	CCOC(=O)c1cnc2c(SCc3ccccc3)cccn2c1=O
146 to 150 °C	COc1ccc(S(=O)(=O)c2c(Br)cc(CC(=O)O)cc2Br)cc1C1CCCCC1
135 to 137 °C	CC(C)(O)c1ccc(CC(=O)Nc2cccnc2Oc2ccc(F)cc2)cc1

The remaining lines, values behind:

SMILES	melting point
Cc1ccc(C(=O)C2=C(O)C(=O)N(c3ccc(C)nn3)C2c2ccc(OCCN(C)C)cc2)cc1 (stereo unspecified)	263 to 266 °C
CN(C)Cc1nc(C(N)=O)nn1-c1ccc(Cl)cc1C(=O)c1ccccc1Cl	177 to 180 °C
CC(C)(C)C(O)Cn1ncn(-c2ccc(N3CCN(c4ccc(O[Si](C)(C)C(C)(C)C)cc4)CC3)cc2)c1=O (stereo unspecified)	196 °C
COCCCOc1cc(CC(CC2C(OC(=O)OC(C)(C)C)CC(C(C)(C)O)C(=O)N2C(=O)OC(C)(C)C)C(C)C)ccc1OC (stereo unspecified)	118 to 119 °C
Cc1c(C)c2c(c(C)c1OC(=O)CCC(=O)O)CCC(C)(COc1ccc(CC3SC(=O)NC3=O)cc1)O2 (stereo unspecified)	197 to 202 °C
Cc1c(-c2cc(C(=O)O)c(Cl)cc2F)nn(C)c1C(F)(F)F	155 °C
O=C1N(CCCOCc2ccccc2)c2ccccc2C12COc1cc3c(cc12)CCO3 (stereo unspecified)	112 to 113 °C
COc1cc(OC)c(CC(=O)c2ccc(C(C)C)c(OS(N)(=O)=O)c2C(C)C)c(OC)c1	159 to 163 °C
CCc1nc2c(C)cc(C)nc2n1Cc1ccc2c(c1)CCc1ccccc1N2Cc1nnn[nH]1	177 to 179 °C
C=CCNC1=NS(=O)(=O)N=C1NCCSCc1ccc(CN(C)C)o1	83 to 86 °C
CC(C)S(=O)(=O)c1cnc2c(c1)nc(CC(C)(C)C)n2CC1CCOCC1	201 °C
CNC(=S)NCCCCc1c[nH]c(NC(=N)N)n1	179 to 184 °C
Cc1cccc(C)c1N1C(=N)N(c2c(C)cccc2C)C(C)C1C (stereo unspecified)	155 to 157 °C
O=C1c2ccccc2C(=O)N1CCN1CCN(C(c2ccccc2)c2ccccn2)CC1 (stereo unspecified)	114 to 117 °C
COc1cc(C(C)=O)ccc1OCCCN1CCN(c2csc3cc(F)ccc23)CC1	172 to 174 °C
CCCCCC(C)C(C)c1cc(O)c2c(c1)OC(C)(C)C1=C2CN(CC(=O)O)CC1 (stereo unspecified)	192 to 195 °C
CCN1CC(NC(=O)Nc2cc(Cl)cc(Cl)c2)CN1CC	165 to 167 °C
CS(=O)(=O)C(C(=O)OCc1ccccc1)(C(=O)OCc1ccccc1)N1C(=O)C(NC(=O)Cc2ccccc2)C1CN=[N+]=[N-] (stereo unspecified)	114 to 115 °C
CS(=O)(=O)c1ccc(-c2cc(=O)n(C3CCCC3)nc2-c2ccc(F)cc2)cc1	191 to 192 °C
CC(C)(C)ON=Cc1ncn2c1[C@@H]1CCCN1C(=O)c1c(Cl)cccc1-2	215 to 216 °C
COc1cc2c(cc1OCCCBr)oc1cc(-c3ccccc3Cl)c3c(c12)C(=O)N(CCCBr)C3=O	180 to 182 °C
COc1cccc(Oc2cccc(Oc3ccc4c(c3)OCO4)c2C(=O)O)c1	146 to 148 °C
CC1(Cc2ccc(Cl)c(Cl)c2)OC(=O)N(Cc2cc(C(F)(F)F)cc(C(F)(F)F)c2)C1=O (stereo unspecified)	80 to 82 °C

SMILES	melting point
COc1cc2ncnc(N3CCc4cc5[nH]ccc5cc43)c2cc1OC	245 to 252 °C
CCON=C(C(C)=NO)c1ccc(OC[Si](C)(C)c2ccc(F)cc2)cc1	100 to 102 °C
Nc1c(Cl)cc(Cl)c(CCC(=O)O)c1Cl	145 °C
NNC(=O)c1cc(Cl)c(O)cc1O	260 °C
COCCOc1ccc(C(=O)C2=C(O)C(=O)N(c3ccc(C)nn3)C2c2ccc(OC(F)(F)F)cc2)cc1 (stereo unspecified)	216 to 219 °C
Oc1c2c(c3nccc4c3c1CCC4)CCCC2	224 °C
Cc1c(Br)c(C)c2c(OS(=O)(=O)C(F)(F)F)coc2c1C	54 to 55 °C
CCCCCNS(=O)(=O)NC(=O)/C(C)=C/c1ccc(OCCOC)cc1Oc1ncc(C(F)(F)F)cc1Cl	152 to 153 °C
Cc1cc2c(cc1F)C(C)(C)CCC2(C)C	90 to 91.8 °C
C[C@H]1CCCC(C)(C)[C@@H]1[C@H](O)c1cccc(C#N)c1	105 to 107 °C
CCNC(=S)NCCSCc1[nH]cnc1C	140 to 141 °C
CS(=O)(=O)Oc1ccc2c(c1)C1(CCCC1)CO2	75 to 77 °C
NC(=O)Cc1cc(Oc2ccc3c(ccn3C(=O)Nc3ccc(CN4CCOCC4)c(C(F)(F)F)c3)c2)ncn1	219 to 221 °C
CC(C)(C)c1ccc(C[C@@H](NC(=O)c2cccc3c2C=CCCC3)[C@@H](O)c2ccc(F)cc2)cc1 (racemic)	140 to 142 °C
OC1CSC(Oc2cc(-c3cccnc3)ccc2Cl)C(O)C1O (stereo unspecified)	172 °C
COc1cc(F)ccc1C(O)C1CCCCn2c1nc(-c1ccncn1)cc2=O (racemic)	235 to 237 °C
O=[N+]([O-])c1cc2nc(O)c(O)nc2c2ncccc12	> 300 °C
CCCCN(CCCC)S(=O)(=O)c1ccc(C(CC2CCCC2)C(=O)Nc2nc3ccc(OC)nc3s2)cc1 (stereo unspecified)	65 to 67 °C
Cc1ccc2cc(-c3ccc4c(c3)C(C)(C)CCC4(C)C)ccc2c1	173 to 175 °C
O=S1(=O)c2cccc3cccc(c23)N1CCCN1CCN(c2ccccn2)CC1	101 °C
CCNC(=S)NS(=O)(=O)c1cc2c(cc1OCC)OCCC2CNC(=O)N1CC(C)=C(CC)C1=O (stereo unspecified)	178 to 180 °C
O=C(O)CN(CCN(CC(=O)O)CC(=O)O)CCN(CC(=O)O)CC(=O)Nc1ccccc1	125 °C
